# Results reported in ChEMBL document CHEMBL1201862, “PubChem BioAssay data set” (2004).
#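 Following 48 hours of exposure in 96-well plates, responses at five concentrations were used to interpolate endpoints linearly. The concentration for 50% growth inhibition is given as GI50.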 Calls of active or inactive are those of the source. Cut-off read from the data, not from the text of the source: active = GI50 up to about 1.1 µM and inactive = higher.
# Tests used:
# Experiment in all cases: NCI-60 cell line screen, 48 h
# [1] = tested on: SNB-75
# [2] = tested on: HOP-62
# [3] = tested on: SK-OV-3
# [4] = tested on: MDA-MB-231
# [5] = tested on: DU-145
# [6] = tested on: SF-539
# [7] = tested on: LOX IMVI
# [8] = tested on: OVCAR-8
# [9] = tested on: SR
# [10] = tested on: ACHN
# [11] = tested on: Malme-3M
# [12] = tested on: NCI/ADR-RES
# [13] = tested on: 786-0
# [14] = tested on: NCI-H226
# [15] = tested on: RXF 393
# [16] = tested on: TK-10
# [17] = tested on: UO-31
# [18] = tested on: NCI-H460
# [19] = tested on: KM12
# [20] = tested on: M14
# [21] = tested on: MCF7
# [22] = tested on: COLO 205
# [23] = tested on: MOLT-4
# [24] = tested on: HOP-92
# [25] = tested on: HCT-116
# [26] = tested on: U-251
# [27] = tested on: SK-MEL-28
# [28] = tested on: HL-60
# [29] = tested on: OVCAR-5
# [30] = tested on: HCC 2998
# [31] = tested on: SW-620
# [32] = tested on: RPMI-8226
# [33] = tested on: OVCAR-4
# [34] = tested on: K562
# [35] = tested on: SNB-19
# [36] = tested on: HCT-15
# [37] = tested on: CCRF-CEM
# [38] = tested on: MDA-MB-435
# [39] = tested on: SN12C
# [40] = tested on: NCI-H23
# [41] = tested on: EKVX
# [42] = tested on: UACC-62
# [43] = tested on: Hs-578T
# [44] = tested on: SF-295
# [45] = tested on: SK-MEL-5
# [46] = tested on: A498
# [47] = tested on: SF-268
# [48] = tested on: A549
# [49] = tested on: IGROV-1
# [50] = tested on: T47D
# [51] = tested on: HT-29
# [52] = tested on: UACC-257
# [53] = tested on: SK-MEL-2
# [54] = tested on: CAKI-1
# [55] = tested on: PC-3
# [56] = tested on: OVCAR-3
# [57] = tested on: NCI-H522
compound,measurement,setting,value
COc1cc(CNC(=S)CCCCCCCCCCC(C)C)ccc1O,GI50,[1],> 100 µM (inactive)
same,GI50,[2],58.6 µM (inactive)
same,GI50,[3],> 100 µM (inactive)
same,GI50,[4],> 100 µM (inactive)
same,GI50,[5],> 100 µM (inactive)
same,GI50,[6],> 100 µM (inactive)
same,GI50,[7],41.9 µM (inactive)
same,GI50,[8],49 µM (inactive)
same,GI50,[9],3.01 µM (inactive)
same,GI50,[10],58.7 µM (inactive)
same,GI50,[11],> 100 µM (inactive)
same,GI50,[12],46.3 µM (inactive)
same,GI50,[13],63.5 µM (inactive)
same,GI50,[14],18.4 µM (inactive)
same,GI50,[15],> 100 µM (inactive)
same,GI50,[16],> 100 µM (inactive)
same,GI50,[17],11.9 µM (inactive)
same,GI50,[18],42.9 µM (inactive)
same,GI50,[19],28.4 µM (inactive)
same,GI50,[20],48.4 µM (inactive)
same,GI50,[21],41.5 µM (inactive)
same,GI50,[22],70.6 µM (inactive)
same,GI50,[23],5.92 µM (inactive)
same,GI50,[24],24.2 µM (inactive)
same,GI50,[25],31.6 µM (inactive)
same,GI50,[26],72.1 µM (inactive)
same,GI50,[27],> 100 µM (inactive)
same,GI50,[28],13.3 µM (inactive)
same,GI50,[29],> 100 µM (inactive)
same,GI50,[30],63.1 µM (inactive)
same,GI50,[31],> 100 µM (inactive)
same,GI50,[32],37.2 µM (inactive)
same,GI50,[33],53.6 µM (inactive)
same,GI50,[34],35.2 µM (inactive)
same,GI50,[35],72.6 µM (inactive)
same,GI50,[36],63 µM
same,GI50,[37],1.19 µM (inactive)
same,GI50,[38],41.9 µM (inactive)
same,GI50,[39],92.3 µM (inactive)
same,GI50,[40],28.7 µM (inactive)
same,GI50,[41],62.8 µM (inactive)
same,GI50,[42],34.4 µM (inactive)
same,GI50,[43],22.2 µM (inactive)
same,GI50,[44],43.7 µM (inactive)
same,GI50,[45],36.2 µM (inactive)
same,GI50,[46],31.6 µM (inactive)
same,GI50,[47],> 100 µM (inactive)
same,GI50,[48],53 µM (inactive)
same,GI50,[49],44.2 µM (inactive)
same,GI50,[50],27 µM (inactive)
same,GI50,[51],36.7 µM (inactive)
same,GI50,[52],38.5 µM (inactive)
CCOC(=O)C1(C(=O)OCC)CCC(C(OC)OC)C(CC(=O)OC)C1 (stereo not drawn),GI50,[1],> 10 µM (inactive)
same,GI50,[2],> 10 µM (inactive)
same,GI50,[3],> 10 µM (inactive)
same,GI50,[53],> 10 µM (inactive)
same,GI50,[9],> 10 µM (inactive)
same,GI50,[10],> 10 µM (inactive)
same,GI50,[11],> 10 µM (inactive)
same,GI50,[12],> 10 µM (inactive)
same,GI50,[13],> 10 µM (inactive)
same,GI50,[15],> 10 µM (inactive)
same,GI50,[18],> 10 µM (inactive)
same,GI50,[20],> 10 µM (inactive)
same,GI50,[21],> 10 µM (inactive)
same,GI50,[22],> 10 µM (inactive)
same,GI50,[23],> 10 µM (inactive)
same,GI50,[24],> 10 µM (inactive)
same,GI50,[26],> 10 µM (inactive)
same,GI50,[27],> 10 µM (inactive)
same,GI50,[54],> 10 µM (inactive)
same,GI50,[28],> 10 µM (inactive)
same,GI50,[31],> 10 µM (inactive)
same,GI50,[32],> 10 µM (inactive)
same,GI50,[33],> 10 µM (inactive)
same,GI50,[34],> 10 µM (inactive)
same,GI50,[37],> 10 µM (inactive)
same,GI50,[38],> 10 µM (inactive)
same,GI50,[40],> 10 µM (inactive)
same,GI50,[42],> 10 µM (inactive)
same,GI50,[45],> 10 µM (inactive)
same,GI50,[47],> 10 µM (inactive)
same,GI50,[48],> 10 µM (inactive)
same,GI50,[49],> 10 µM (inactive)
same,GI50,[50],> 10 µM (inactive)
O=C1C(Cl)=C(N2CCN(CCOCCO)CC2)C(=O)c2c(O)ccc(O)c21,GI50,[1],1.6 µM (inactive)
same,GI50,[5],1.82 µM (inactive)
same,GI50,[6],1.75 µM (inactive)
same,GI50,[14],1.89 µM (inactive)
same,GI50,[18],1.98 µM (inactive)
same,GI50,[24],0.237 µM (active)
same,GI50,[29],1.87 µM (inactive)
same,GI50,[30],1.83 µM (inactive)
same,GI50,[36],0.227 µM
same,GI50,[48],2.01 µM (inactive)
same,GI50,[50],0.264 µM (active)
c1ccc2c(Nc3ccc(Oc4ccc(Nc5c6ccccc6nc6ccccc56)cc4)cc3)c3ccccc3nc2c1,GI50,[1],0.436 µM (active)
same,GI50,[3],1.72 µM (inactive)
same,GI50,[53],1.96 µM (inactive)
same,GI50,[5],0.277 µM (active)
same,GI50,[7],0.792 µM (active)
same,GI50,[8],0.139 µM (active)
same,GI50,[11],1.73 µM (inactive)
same,GI50,[12],0.0655 µM (active)
same,GI50,[13],0.0504 µM (active)
same,GI50,[14],1.72 µM (inactive)
same,GI50,[15],2.4 µM (inactive)
same,GI50,[16],1.19 µM (inactive)
same,GI50,[18],0.618 µM (active)
same,GI50,[20],0.0925 µM (active)
same,GI50,[21],0.0942 µM (active)
same,GI50,[22],0.815 µM (active)
same,GI50,[55],1.6 µM (inactive)
same,GI50,[24],1.83 µM (inactive)
same,GI50,[27],0.102 µM (active)
same,GI50,[54],1.63 µM (inactive)
same,GI50,[28],0.547 µM (active)
same,GI50,[29],0.528 µM (active)
same,GI50,[30],< 0.01 µM (active)
same,GI50,[31],0.0649 µM (active)
same,GI50,[33],0.0668 µM (active)
same,GI50,[35],0.299 µM (active)
same,GI50,[38],0.0647 µM (active)
same,GI50,[56],0.0659 µM (active)
same,GI50,[57],0.665 µM (active)
same,GI50,[40],0.181 µM (active)
same,GI50,[41],1.5 µM (inactive)
same,GI50,[43],2.21 µM (inactive)
same,GI50,[44],1.67 µM (inactive)
same,GI50,[45],1.57 µM (inactive)
same,GI50,[46],1.85 µM (inactive)
same,GI50,[47],1.57 µM (inactive)
same,GI50,[50],0.556 µM (active)
